# Measurements from patent publication US20230364230A1, “COMBINATION THERAPY FOR CANCER” (ENGMAB SÀRL, priority 2020, published 2023).
# Test system: chronic lymphocytic leukemia (CLL) cell lines (MEC2, WA-OSEL)
# Experiment: NK cell cytotoxicity and ADCC against CLL cell lines
# Assay type: cell-based, human
# Details: compared to venetoclax, ibrutinib, duvelisib
# Method: Freshly isolated human NK cells from normal donors (n=4) were treated overnight with supernatants obtained from iberdomide treated and anti-CD3 stimulated PBMCs prior to co-culture with CSFE labeled chronic lymphocytic leukemia (CLL) cell lines for 4 hours. Live target cells were gated on CFSE+Annexin-Topro-population by flow cytometry.
# As shown in FIGS. 6A-6B, compared to other therapeutic agents such as venetoclax, ibrutinib, or duvelisib, iberdomide enhanced NK cell mediated cytotoxicity and antibody-dependent cellular cytotoxicity (ADCC) against CLL cell lines. In this example, obinutuzumab (GA101) was used to mediate ADCC.
structure (smiles),measurement,setting,value
"O=C1CC[C@H](N2Cc3c(OCc4ccc(CN5CCOCC5)cc4)cccc3C2=O)C(=O)N1 [CC-220, (S)-3-(4-((4-(Morpholinomethyl)benzyl)oxy)-1-oxoisoindolin-2-yl)piperidine-2,6-dione]",NK cell mediated cytotoxicity against CLL cell lines,"NK cells treated overnight with supernatants of treated, anti-CD3 stimulated PBMCs, 4 hours co-culture",enhanced
same,antibody-dependent cellular cytotoxicity (ADCC) against CLL cell lines,obinutuzumab (GA101) used to mediate ADCC,enhanced
